We go through 3 molecules from the Kinase Knowledgebase extract (Sharma et al. 2016).

pIC50: −log10 of the molar value.

Test [1] addresses CDK2 (UniProt P24941). Nature of the test: Enzyme Assay.
Test [2] has as its target CDK2 (UniProt P24941). The test can be described thus: Enzyme Assay. The source holds these as a separate data set.

The pIC50 is the negative decadic logarithm of the IC50, by convention in mol/L. Higher therefore signals a low IC50.

`COc1ccccc1CNC(=O)c1n[nH]cc1NC(=O)c1c(F)cccc1F`: the negative-log IC50 (pIC50) at CDK2 [1] and against CDK2 [2] was > 4.70 each time.

With `Cc1nn(C)c(C)c1CNC(=O)c1n[nH]cc1NC(=O)c1c(F)cccc1F`, the pIC50 against CDK2 [1] and against CDK2 [2] was > 4.70 throughout.

In the case of `O=C(NCC1CCCO1)c1n[nH]cc1NC(=O)c1c(F)cccc1F` (stereo unspecified), the negative-log IC50 (pIC50) against CDK2 [1] and against CDK2 [2] was > 4.70 in each case.
